Measurements as given in patent publication US6916471B2, “Red blood cells loaded with S-nitrosothiol and uses therefor” (Duke University, priority 1995, dated 2005).

Experiments:
[1] = test system: rabbit thoracic aorta rings; assay: Rabbit aortic ring bioassay: native and blocked Hb preparations, vessel tone and ACh (EDRF) relaxation; settings: 1 μM
Source text: Hb-mediated inhibition of endothelium-dependent relaxations is commonly used as a marker of NO responses. Inasmuch as reactions with either metal or thiol centers of Hb should lead to attenuated NO/EDRF (endothelium-derived relaxing factor) responses, we attempted to elucidate the molecular basis of inhibition. Hb preparations in which β93 thiol groups had been blocked with N-ethylmaleimide (NEM) or the hemes blocked by cyanmet (FeIIICN)-derivitization were studied in an aortic ring bioassay, and their activities compared with that of native Hb. Both cyanmet-Hb and NEM-Hb caused increases in vessel tone and attenuated acetylcholine (EDRF)-mediated relaxations (FIG. 3B). […] To verify formation of an S-nitrosothiol in Hb, we established a bioassay in which 2 cm segments of thoracic aorta were interposed in Tygon tubing, through which 3 cc of Krebs solution containing Hb (4 μM) and ACh (2 μM) were circulated by roller pump (1.5 cc/min×5 min).
The effects of native Hb on EDRF responses were compared with Hb preparations in which the thiol or heme centers had been blocked by alkylation or cyanmet derivitization, respectively. All preparations of Hb elicited contractions; however, those of native Hb (in which both SH and metal centers are free for interaction) were most pronounced. […] Relaxations were inhibited to lesser degrees by cyanmet Hb (CN-Hb)(in which hemes were blocked from reaction) and NEM-Hb (in which thiol groups were alkylated by N-ethylmaleimide). […] Direct measurement of SNO-Hb, formed from EDRF under similar conditions, is described in Example 8.
Descending rabbit thoracic aorta were cut into 3 mm rings and mounted on stirrups attached to force transducers (model FT03, Grass Instruments, Quincy, Mass.) for measurement of isometric tone. The details of this bioassay system have been previously described (Stamler, J. S., et al., Proc. Natl. Acad. Sci. USA 89:444-448 (1992)). Cyanmet Hb was prepared from human HbA according to published protocols (Kilbourn, R. G. et al. Biochem. Biophy. Res. Comm. 199:155-162, (1994)). Alkylation of HbA with N-ethylmaleimide was followed by desalting across G-25 Sephadex to remove excess NEM. Removal of unmodified Hbcysβ93 was achieved by passage through Hg-containing affinity columns. The alkylation of free SH groups was verified using 5,5′-dithio-bis[2-nitrobenzoic acid].

rat red blood cells = assay: S-nitrosylation of intraerythrocytic Hb (loading of red blood cells); format: cell-based; settings: for formation of intraerythrocytic SNO-Hb: oxygenated rat red blood cells
Procedure: Given that Hb is largely contained within red blood cells, potential mechanisms by which S-nitrosylation of intracellular protein might occur were explored. […] Rapid oxidation of Hb was not observed under these conditions. […] Thus, erythrocyte access of RSNOs is thiol group specific.
Incubation of rat erythrocytes with S-nitrosocysteine (equimolar to heme (5 mM); phosphate buffer pH 7.4, 25° C.) leads to rapid formation of intracellular SNO-Hb(FeII)O2. […] By 60 min, 3 of the 4 available SH groups of Hb are S-nitrosylated (note that rat Hb contains 4 reactive SH groups). […] Spectrum A is that of SNO-Hb isolated from erythrocytes following G-25 chromatography. Treatment of A with dithionite results in reduction of the S—NO moiety, liberating free NO which is autocaptured by deoxy Hb, forming Hb(FeII)NO (note that dithionite simultaneously deoxygenates Hb) (spectrum C). […] The spectrum of Hb(FeII)NO containing 4 NO's per tetramer is shown for comparison (inset, spectrum B).
At shown intervals, red blood cells were pelleted rapidly by centrifugation, washed three times, lysed in deionized water at 4° C., and the cytosolic fraction subjected to rapid desalting across G-25 columns. Intracellular SNO-Hb was measured by the method of Saville (Gaston, B., et al., (1992); Stamler, J. S., et al., Proc. Natl. Acad. Sci. USA, 89:444-448 (1992)), and confirmed spectroscopically (inset of FIG. 3A) as described above.

Sprague-Dawley rats = assay: Local cerebral blood flow by H2-sensitive microelectrodes; format: in vivo, rat; settings: 1 μmol/kg infused over 3 minutes
Procedure: Adult male Sprague-Dawley rats (290-350 g) were anesthetized with sodium pentobarbital (50 mg/kg IP), intubated and ventilated with a small animal respirator (Edco Scientific Inc., Chapel Hill, N.C.) at a rate and tidal volume to maintain normal values of PaCO2 (35-45 mm Hg; PaCO2=systemic arterial blood carbon dioxide tension). The femoral vein and artery were cannulated for infusion of drugs and for continuous monitoring of systemic blood pressure, respectively. Aliquots of arterial blood (200 μl) were drawn periodically to measure blood gas tensions and pH (Instrumentation Laboratory Co., model 1304 blood gas/pH analyzer). The blood was replaced intravenously with three volumes of normal saline. The inspired O2 concentration was varied using premixed gases balanced with nitrogen. The tissue PO2 was measured continuously with polarographic platinum microelectrodes (50 μm O.D. coated with hydrophobic gas permeable Nafion) implanted stereotaxically in both the right and left hippocampus (AP−3.4 mm, ML+2.2 mm), caudate putamen nucleus and substantia nigra (see coordinates below) (Young, W., Stroke, 11:552-564 (1980); Heiss, W. D. and Traupett, H., Stroke, 12:161-167 (1981); Dewhirst, M. W. et al., Cancer Res., 54:3333-3336 (1994); Kerger, H. et al., Am. J. Physiol., 268:H802-H810 (1995)). The PO2 electrodes were polarized to −0.65V against a distant Ag/AgCl reference located on the tail and the current flow was measured using a low-impedance nA-meter. Regional arterial PO2 was adjusted by changing the inspired O2 concentration and atmospheric pressure.
Polarographic hydrogen (H2)-sensitive microelectrodes were implanted stereotaxically in the substantia nigra (AP −5.3 mm, ML −2.4 mm to the bregma, depth 3.2 mm), caudate putamen nucleus (CPN) (AP +0.8 mm, ML −2.5 mm, depth 5.2 mm) and parietal cortex, for measurement of regional blood flow (Young, W., Stroke, 11:552-564 (1980); Heiss, W. D. and Traupett, H., Stroke, 12:161-167 (1981)). The microelectrodes were made from platinum wire and insulated with epoxy, with the exception of the tip (1 mm) which was coated with Nafion. For placement, the electrodes were mounted on a micromanipulator and the rat's head was immobilized in a Kopf stereotaxic frame. H2-sensitive electrodes were polarized to +400 mV against a distant reference electrode on the tail, and the polarographic current was measured using a low-impedance nA meter during and after the inhalation of hydrogen gas (2.5%) for 1 min. Both the hydrogen clearance curves and voltage for oxygen measurements were made using PC WINDAQ (software, DI-200 AC, Dataq Instruments, Inc., Akron, Ohio). Cerebral blood flow was calculated using the initial slope method (Young, W., Stroke, 11:552-564 (1980); Heiss, W. D. and Traupett, H., Stroke, 12:161-167 (1981)). Regional blood flow responses were monitored for 30 min. prior to and 30 min. following drug administration; hemoglobins were given at time 0.
The cerebrovascular effects of SNO-Hb were measured in adult male Sprague-Dawley rats using O2 and H2 (blood flow)-sensitive microelectrodes that were placed stereotaxically in several regions of the brain as for Example 11.
Comparative effects of SNO-Hb (●) and Hb (▪) (1 μmol/kg infused over 3 minutes) on local blood flow in substantia nigra (SN), caudate putamen nucleus, and parietal cortex are shown for three different conditions. […] Baseline blood flow was decreased by ˜10% under 100% O2+3 ATA as compared to 100% O2. n=7 for all data points. Values of tissue/microvascular PO2 ranged from 19-37 mm Hg in 21% O2; from 68-138 mm Hg in 100% O2; and from 365-538 mm Hg in 100%+3 ATA (Duke University Medical Center Hyperbaric Chambers).

[2] = test system: rabbit thoracic aorta rings; assay: Oxygen-dependent rabbit aortic ring bioassay of Hb, SNO-Hb, GSNO and SNO-RBCs

Compound | % ACh RELAXATION [1] | % INCREASE IN TENSION [1] | formation of intraerythrocytic SNO-Hb (rat red blood cells) | other results
NEM-Hb: Hb in which thiol groups were alkylated by N-ethylmaleimide | 60.5 ± 3.9 (n = 7) % | 29.4 ± 1.3 (n = 7) % | – | –
N[C@@H](CCSN=O)C(=O)O [S-nitrosohomocysteine] | – | – | Intraerythrocytic SNO-Hb also formed | –
Hb: native cell-free human hemoglobin purified from red cells [reference compound] | 31.9 ± 6.9 (n = 7) % | 40.8 ± 2.3 (n = 7) % | – | local cerebral blood flow (Sprague-Dawley rats; 21% O2): decreased local blood flow; local cerebral blood flow (Sprague-Dawley rats; 100% O2): decrease in flow was preserved; local cerebral blood flow (Sprague-Dawley rats; 100% O2+3 ATA): tended to decrease cerebral flow to similar extents; effect on tone of rings contracted with phenylephrine under hypoxia ([2]; 1 μM, 6-7 torr): progressive increases in vessel tone
N[C@@H](CSN=O)C(=O)O [S-nitrosocysteine] | – | – | very rapid formation of intracellular SNO-Hb(FeII)O2 | SH groups of Hb S-nitrosylated (rat red blood cells; of the 4 available SH groups of rat Hb, by 60 min, equimolar to heme (5 mM), pH 7.4, 25° C.): 3
CN-Hb: cyanmet Hb, in which hemes were blocked from reaction | 80.7 ± 1.0 † (n = 4) % | 12.9 ± 3.0 (n = 6) % | – | –
deoxyHb: deoxygenated hemoglobin [reference compound] | – | – | – | effect on vessel tone in T-structure ([2]; <1% O2 (˜6 torr)): powerful contractile agent
[N]=O [NO, nitric oxide, reference compound] | – | – | primarily in metHb formation | –
CC(=O)OCC[N+](C)(C)C [ACh, acetylcholine] | 98.3 ± 0.6 (n = 10) % | – | – | –
N[C@@H](CSN=O)C(=O)NCC(=O)O [S-nitrosocysteinylglycine] | – | – | Intraerythrocytic SNO-Hb also formed | –
